From US20180201651A1, “PHARMACEUTICAL COMPOSITION THAT IS ANTICANCER AND SUPPRESSES CANCER METASTASIS, CONTAINING, AS ACTIVE INGREDIENT, FUSION PEPTIDE SIMULTANEOUSLY TARGETING CANCER CELL AND TUMOR ASSOCIATED MACROPHAGE” (Kyungpook National University Industry-Academic Cooperation …, priority 2015, published 2018)
Where no end group is shown, it is not given here.

Assays:
IL-10-treated 4T1 cells = assay: IL4RPep-1 binding affinity assay on IL-10-treated versus wild-type 4T1 cells; set-up: species or system mouse; conditions: FIG. 9A
Experimental: Blocking the tumor cells with 1% BSA at room temperature for 30 minutes, the biotin-labeled IL4RPep-1 peptides of various concentrations (1 to 80 μM) were incubated for 1 hour. After washing with PBS, the cells were incubated with Neutravidin HRP (1: 10000) at room temperature for 30 minutes. HRP activity was measured by using the TMB substrate, and the reaction was stopped using 2M sulfuric acid. Absorbance was measured at 450 nm using TECAN microplate reader. Kd values were calculated using Graph Pad Prism 6 software (GraphPad software Inc., La Jolla, La.).
4T1 cells were cultured using DMEM medium containing 50% of the mouse spleen-derived macrophages which were differentiated into M2 type macrophages. As for the culture medium containing TAM, the debris was removed by centrifugation and strainer prior to use. Cytokine-induced epithelial mesenchymal transition was implemented by culturing the cells with mouse IL-10 and mouse IL-4 for 24 hours or with mouse TFGβ-containing medium for 48 hours. Subsequently, the cells were stained with N-cadherin (a mesenchymal marker), and the expression level of IL-4 receptor was evaluated.

IL-4 receptor [1] = assay: Immunofluorescent staining of IL4RPep-1 bound to IL-4 receptors and cells; assay type: cell-based
Experimental: In order to test whether the peptides binds to cells, tumor cells were blocked with 1% BSA solution initially, 10 μM FITC-labeled IL4RPep1 peptides of SEQ ID NO: 1 were then incubated at 4° C. for 1 hour. The cells were washed and fixed with 4% PFA, while their nuclei were stained with DAPI.
To evaluate the expression level of IL-4 receptor in the cells or tumor tissues, immunostaining was performed on frozen tissue sections or fixed mouse tumor cell lines by using anti-IL-4R, anti-IL13Rα1 and anti-IL2R γC antibodies.
After being washed with PBS, the cells were incubated at room temperature for 1 hour with secondary antibodies. Finally, following nuclear staining with DAPI, the cells were examined by a fluorescence microscope (Zeiss, Germany).

IL-4 receptor [2] = target: T1, IL-4 receptor (Mus musculus, UniProt P16382); assay: In vivo optical imaging and histological analysis of peptide binding in 4T1 tumor cells-transplanted mice; conditions: for fluorescence in tumor tissues: Flamma 675-labeled peptide, tail vein
T1 construct: from tissue; host or cells: 4T1 tumour tissue in wild-type Balb/c mice (IL4R alpha knockout mice as negative control)
T1 sequence (P16382 26-810): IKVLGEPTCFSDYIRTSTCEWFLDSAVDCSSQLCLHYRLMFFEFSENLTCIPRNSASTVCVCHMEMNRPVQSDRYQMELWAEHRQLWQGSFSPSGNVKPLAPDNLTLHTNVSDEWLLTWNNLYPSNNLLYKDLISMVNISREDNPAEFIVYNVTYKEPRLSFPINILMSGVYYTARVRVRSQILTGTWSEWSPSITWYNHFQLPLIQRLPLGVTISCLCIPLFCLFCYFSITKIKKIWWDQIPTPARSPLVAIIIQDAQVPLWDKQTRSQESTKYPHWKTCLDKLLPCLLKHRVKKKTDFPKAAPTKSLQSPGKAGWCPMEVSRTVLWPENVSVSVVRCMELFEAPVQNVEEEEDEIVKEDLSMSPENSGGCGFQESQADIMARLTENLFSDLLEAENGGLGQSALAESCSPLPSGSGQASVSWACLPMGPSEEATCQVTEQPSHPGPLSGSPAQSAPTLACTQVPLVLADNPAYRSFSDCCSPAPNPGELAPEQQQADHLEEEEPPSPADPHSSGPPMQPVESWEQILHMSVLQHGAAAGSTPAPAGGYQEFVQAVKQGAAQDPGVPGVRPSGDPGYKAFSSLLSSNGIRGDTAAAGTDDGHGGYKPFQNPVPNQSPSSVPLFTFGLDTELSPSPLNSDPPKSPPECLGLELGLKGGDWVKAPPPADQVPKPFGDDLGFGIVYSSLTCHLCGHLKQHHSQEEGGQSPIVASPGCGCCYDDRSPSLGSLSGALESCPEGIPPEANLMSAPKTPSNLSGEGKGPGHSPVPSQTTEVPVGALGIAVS
From the text: Female wild-type Balb/c mice were purchased from Orient Bio (Republic of Korea) to prepare IL-4 receptor-deficient mice. Mouse tumor models were produced by subcutaneously injecting 1×10^6 4T1 tumor cells into the flank top skin of the wild-type and IL-4 receptor-deficient mice, respectively. Orthotopic animal models were produced by injecting 1×10^6 4T1 cells into the mammary fat tissue of the mice.
(§1) The Flamma 675-labeled IL4RPep-1 peptide (SEQ ID NO: 1) and control peptide (NSSSVDK) of SEQ ID NO: 7 were administered via the tail vein of 4T1 tumor cells-transplanted wild-type mice and the IL-4 receptor-deficient mice, respectively. In vivo imaging was conducted using the Optix imaging system (ART Inc., Canada) after one hour and two hours circulation. The mice were sacrificed after imaging, and tumors and organs were then excised for ex vivo imaging.
For immunohistochemical analysis, excised tumors were fixed with 4% PFA and dehydrated with 30% sucrose. 8 μm thick slices of the tumor were prepared and their histological structures were evaluated by DAPI staining.
Additionally, in order to analyze the tendency of […] of the peptide and the receptor in the tumor tissues, the tumor samples were immunostained with anti-IL4Rα antibodies and F4/80 antibodies, followed by detection with Alexa-488/594-conjugated secondary IgG antibodies (invitrogen).

[3] = system: IL-10-treated 4T1 tumor cells; assay: Cytotoxicity evaluation (CCK8 kit); assay type: cell-based, mouse; conditions: FIG. 10B
Experimental: (§2) Absorbance was measured at 450 nm, and cytotoxicity was calculated by the following equation:
(§3) Cell viability=(A sample−A blank/A control−A blank)×100
(§4) A control=Absorbance value of the well which contains only cells and CCK8 solution

wild-type 4T1 cells = assay: Cytotoxicity evaluation (CCK8 kit); assay type: cell-based, mouse; conditions: FIG. 10A
Experimental: as §2, §3, §4

4T1 tumor = assay: In vivo anti-cancer and cancer metastasis inhibitory activity, orthotopic 4T1 tumor model; set-up: species or system mouse
Experimental: Orthotropic 4T1 tumor model were produced by the implantation of 1×10^6 4T1 cells into the left mammary fat pad of the wild-type Balb/c mouse. Tumor was left to grow until its size reached approximately 100 mm^3, followed by random segregation of mice into separate groups for administration. Mice were separated into a total of six groups with five […] in each group. Peptides ([…] ID NO: 1) and […] fusion polypeptide (SEQ ID NO: 3), respectively) were administered via the tail vein of the mouse at an equimolar concentration (1 mM peptide 200/20 g body weight of mice, administered 3 times a week for 4 weeks). Mice of the other three groups were intraperitoneally administered with 8 mg/kg dosage concentration of paclitaxel once a week, in addition to the administration of the peptides. […] The weight and tumor size of the mice were observed after administration. The tumor size was measured with a digital caliper, and the volume of the tumor was calculated by the following equation: V=(L×W×H)/2 (L: the longest-length, W: Short length, H: height) The mice were sacrificed after the last dose, and metastasis of the tumor into the lungs and liver was evaluated. The excised tumors and organs were fixed in 4% PFA and used for additional immunohistological analysis. Frozen tumor tissues were blocked with a blocking solution of 1 g of BSA, 0.2 g of gelatin and 0.05 g of saponin dissolved in PBS, followed by incubation using primary antibodies for 11⁄2 hours and staining using HRP-labeled secondary antibodies for 45 minutes at room temperature. The stained tissues were exposed using DAB (DAKO) and a contrast dyeing was performed using hematoxylin for 5 minutes at room temperature. Each step moved onto the next one after washing with PBS containing 10% blocking solution. Finally, the tissues were observed by Bright Field Microscopy.

[4] = system: M2 type macrophages (tumor-associated macrophages, TAM)
Experimental: as §2, §3, §4

mouse IL-4 receptor = target: T2, mouse IL-4 receptor (mouse, UniProt P16382 26-810); assay: in vivo and ex vivo fluorescence imaging, Flamma 675-labelled peptide, 4T1 tumor-bearing Balb/c mice
T2 construct: whole, on cells; The target is endogenous receptor on mouse cells, not a purified protein; also called IL4R alpha
T2 sequence (looked up): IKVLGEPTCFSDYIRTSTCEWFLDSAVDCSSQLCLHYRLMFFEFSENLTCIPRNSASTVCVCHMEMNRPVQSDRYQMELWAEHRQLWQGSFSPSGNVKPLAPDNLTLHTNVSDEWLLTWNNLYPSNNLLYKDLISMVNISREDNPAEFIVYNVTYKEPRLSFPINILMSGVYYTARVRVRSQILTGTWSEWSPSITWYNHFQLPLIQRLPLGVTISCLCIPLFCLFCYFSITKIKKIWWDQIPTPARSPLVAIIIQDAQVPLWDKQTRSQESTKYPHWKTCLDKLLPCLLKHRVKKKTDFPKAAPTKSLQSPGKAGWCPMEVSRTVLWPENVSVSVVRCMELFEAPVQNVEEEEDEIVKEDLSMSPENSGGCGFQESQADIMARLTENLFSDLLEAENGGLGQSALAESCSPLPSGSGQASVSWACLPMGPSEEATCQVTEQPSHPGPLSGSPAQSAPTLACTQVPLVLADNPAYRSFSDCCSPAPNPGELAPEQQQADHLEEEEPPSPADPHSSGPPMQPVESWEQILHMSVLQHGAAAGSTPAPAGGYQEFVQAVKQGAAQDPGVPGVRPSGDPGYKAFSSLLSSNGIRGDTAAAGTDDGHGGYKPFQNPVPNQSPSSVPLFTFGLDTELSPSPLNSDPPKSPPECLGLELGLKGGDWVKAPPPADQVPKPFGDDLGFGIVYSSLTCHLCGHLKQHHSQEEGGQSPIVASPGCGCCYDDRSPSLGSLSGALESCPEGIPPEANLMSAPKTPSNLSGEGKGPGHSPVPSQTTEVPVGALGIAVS
Experimental: as §1
It was evaluated whether the IL4RPep-1 peptide having the amino acid sequence of SEQ ID NO: 1 specifically binds to IL-4 receptor in 4T1 tumor cells-transplanted Balb/c wild-type mice and Balb/c IL-4 receptor-deficient (knockout) mice, respectively. That is, Flamma 675-labeled IL4RPep-1 peptides and control peptides (NSSSVDK, SEQ ID NO: 7) were administered into the tail vein of the mouse, respectively, followed by real time observation for fluorescence intensity.

[5] = 4T1-transplanted wild-type Balb/c mice, in vivo and ex vivo
[6] = frozen tumor sections, antibody staining, versus control group, FIG. 13

Experimental for M1-type macrophages: as §2, §3, §4

CRKRLDRNC [IL4RPep-1]
binding affinity in IL-10-treated 4T1 cells compared with wild-type 4T1 cells (IL-10-treated 4T1 cells): significantly excellent
binding to cells versus expression pattern of IL-4 receptors (IL-4 receptor [1]; 4T1, A549, MDA-MB 231, M1 and M2 type Raw 264.7 cells, FITC-labeled peptide 10 μM): specifically bind to IL-4 receptors
binding pattern to cells versus expression pattern of IL-4 receptors (IL-4 receptor [1]; mouse spleen-derived M1 type and M2 type macrophages, FIG. 2A): the same as the expression pattern of IL-4 receptors
fluorescence in tumor tissues (IL-4 receptor [2]; 4T1-transplanted IL-4 receptor-deficient (knockout) Balb/c mice): no fluorescence was detected
fluorescence in tumor tissues (IL-4 receptor [2]; [5]): strongly detected
peptide binding in excised tumor tissue fragments (IL-4 receptor [2]; IL-4 receptor-deficient mice, immunostaining, FIG. 4B): no binding
peptide staining in excised tumor tissue fragments (IL-4 receptor [2]; wild-type mice, immunostaining, FIG. 4A): in the same pattern as that of IL-4 receptors

CRKRLDRNCGGGKLAKLAKKLAKLAK (Fusion peptide) [IL4RPep-1-KLA]
cytotoxicity [3]: excellent cytotoxicity
cytotoxicity (wild-type 4T1 cells): insignificant
tumor growth (4T1 tumor; Balb/c mice, tail vein, 3 times a week for 4 weeks, from administration until end of experiment, FIG. 11): significantly suppressed
CD4(+) T cells in tumor tissue (4T1 tumor; [6]): decreased
CD8 (+) T cells in tumor tissue (4T1 tumor; [6]): increased
CD80(+) macrophages in tumor tissue (4T1 tumor; [6]): increased
F4/80(+) tumor-associated macrophages in tumor tissue (4T1 tumor; [6]): reduced
N-cadherins in tumor tissue (4T1 tumor; [6]): reduced
metastasis of cancer in liver and lungs (4T1 tumor; organs excised after final administration, FIGS. 12A and 12B): not observed at all
cytotoxicity [4]: excellent cytotoxicity
cytotoxicity (M1-type macrophages): insignificant

NSSSVDK [control peptide, reference compound]
fluorescence in tumor tissues (IL-4 receptor [2]; [5]): no fluorescence was detected

B1: control peptide (NSSSVDK) (peptide)
peptide: NSSSVDK
modifications: also: Flamma 675 label, position not given here
notes: Control peptide
binding result (mouse IL-4 receptor): no binding
